Test results reported in ChEMBL document CHEMBL1136340, “Indole-2-carboxamides as novel NR2B selective NMDA receptor antagonists” (Bioorg Med Chem Lett, 2003).

What was measured:
[1] = biological target: Glutamate NMDA receptor; GRIN1/GRIN2B (Homo sapiens, UniProt Q05586+Q13224); experiment: Inhibition of N-methyl-D-aspartate glutamate receptor-evoked increase of intracellular Ca+ in cells expressing NMDA glutamate receptor 1/2B; assay type: functional, cell-based
[2] = biological target: Glutamate [NMDA] receptor; experiment: Inhibition of [3H]Ro-256981 binding to N-methyl-D-aspartate glutamate receptor; assay type: protein-complex assay

Glutamate NMDA receptor; GRIN1/GRIN2B, sequence (Q13224 whole entry, other chains not shown): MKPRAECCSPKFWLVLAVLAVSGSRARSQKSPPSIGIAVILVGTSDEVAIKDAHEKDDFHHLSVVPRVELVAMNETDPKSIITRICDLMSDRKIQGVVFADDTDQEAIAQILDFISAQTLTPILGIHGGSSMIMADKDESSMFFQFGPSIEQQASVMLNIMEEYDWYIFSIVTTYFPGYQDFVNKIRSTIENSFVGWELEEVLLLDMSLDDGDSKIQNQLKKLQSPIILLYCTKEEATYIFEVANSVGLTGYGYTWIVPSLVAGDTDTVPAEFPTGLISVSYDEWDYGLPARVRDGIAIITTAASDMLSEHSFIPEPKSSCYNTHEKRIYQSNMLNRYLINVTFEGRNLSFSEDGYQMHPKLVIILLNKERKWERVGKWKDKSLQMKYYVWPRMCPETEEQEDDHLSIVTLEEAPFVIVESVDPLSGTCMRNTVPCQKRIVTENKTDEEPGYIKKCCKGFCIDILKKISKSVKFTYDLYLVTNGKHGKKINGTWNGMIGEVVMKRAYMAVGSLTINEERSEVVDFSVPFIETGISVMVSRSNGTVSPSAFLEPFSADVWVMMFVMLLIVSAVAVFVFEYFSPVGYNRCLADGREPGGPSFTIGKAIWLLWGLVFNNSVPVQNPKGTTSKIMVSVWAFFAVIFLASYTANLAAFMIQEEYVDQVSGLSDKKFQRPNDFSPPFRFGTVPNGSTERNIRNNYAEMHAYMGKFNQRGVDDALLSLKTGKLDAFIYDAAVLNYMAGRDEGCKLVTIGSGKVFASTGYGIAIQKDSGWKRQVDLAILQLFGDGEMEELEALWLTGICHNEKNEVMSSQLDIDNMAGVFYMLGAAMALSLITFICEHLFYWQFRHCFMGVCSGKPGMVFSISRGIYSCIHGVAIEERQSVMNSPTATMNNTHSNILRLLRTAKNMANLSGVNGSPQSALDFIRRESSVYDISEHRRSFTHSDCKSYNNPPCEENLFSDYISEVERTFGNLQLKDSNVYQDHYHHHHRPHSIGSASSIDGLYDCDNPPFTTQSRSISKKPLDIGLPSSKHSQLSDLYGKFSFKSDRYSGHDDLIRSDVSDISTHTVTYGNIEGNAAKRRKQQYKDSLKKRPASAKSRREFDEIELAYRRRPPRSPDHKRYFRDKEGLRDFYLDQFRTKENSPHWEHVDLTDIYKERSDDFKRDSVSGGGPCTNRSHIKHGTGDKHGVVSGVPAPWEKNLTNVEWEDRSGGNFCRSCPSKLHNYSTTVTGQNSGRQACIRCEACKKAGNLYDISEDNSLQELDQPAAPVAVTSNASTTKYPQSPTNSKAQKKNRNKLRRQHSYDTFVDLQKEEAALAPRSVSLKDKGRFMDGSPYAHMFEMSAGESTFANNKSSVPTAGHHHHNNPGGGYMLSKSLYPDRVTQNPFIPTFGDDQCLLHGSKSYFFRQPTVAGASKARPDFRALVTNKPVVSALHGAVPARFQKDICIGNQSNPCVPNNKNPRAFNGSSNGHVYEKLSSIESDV

IC50 [1] [nM] | IC50 [2] [nM] | SMILES
104 | 196 | O=C(/C=C/c1ccc(O)cc1)N1CCC(Cc2ccccc2)CC1
77 | 380 | O=C(c1cc2cccc(O)c2[nH]1)N1CCC(Cc2ccccc2)CC1
52 | 106 | O=C(c1cc2cc(O)cc(O)c2[nH]1)N1CCC(Cc2ccccc2)CC1
39 | 18 | O=C(c1cc2c(O)cccc2[nH]1)N1CCC(Cc2ccccc2)CC1
40 | 31 | O=C(c1cc2cc(O)ccc2[nH]1)N1CCC(Cc2ccccc2)CC1
10 | 6 | O=C(c1cc2c(O)cc(O)cc2[nH]1)N1CCC(Cc2ccccc2)CC1
57 | 6 | C[C@@H](CN1CCC(Cc2ccccc2)CC1)[C@@H](O)c1ccc(O)cc1
20 | 12 | O=C(c1cc2ccc(O)cc2[nH]1)N1CCC(Cc2ccccc2)CC1
24 | 359 | O=C(c1cc2ccc(O)cc2[nH]1)N1CCC(CCc2ccccc2)CC1
46 | 47 | O=C(c1cc2ccc(O)cc2[nH]1)N1CCC(OCc2ccccc2)CC1

SMILES | IC50 [1] [nM] | IC50 [2] [nM]
O=C(c1cc2ccc(O)cc2[nH]1)N1CCC(c2ccccc2)CC1 | > 8000 | 
O=c1[nH]c2ccc([S+]([O-])CCN3CCC(Cc4ccc(F)cc4)CC3)cc2o1 (stereo not drawn) [BESONPRODIL] | 8 | 4
